Source: US9902783B2, “Antibodies and pharmaceutical compositions containing same useful for inhibiting activity of metalloproteins” (Yeda Research and Development Co. Ltd., priority 2007, dated 2018)
Each block holds one molecule with its values, some of them ahead of it.

Key:
[1] = patients; cited from earlier work
metastasis = details: phase III, advanced cancer patients; cited from earlier work
[2] = tested on: cell surface gelatinolytic activity of HT1080 cells; test: in situ zymography with DQ-gelatin; format: cell-based, human; details: 15 μM SB-3CT
Method: To localize net gelatinolytic activity of MMPs by in situ zymography, fluorescein isothiocyanate-labeled DQ gelatin that is intramolecularly quenched (Molecular Probes) was used as a substrate for degradation by gelatinases. Proteolysis by gelatinases yields cleaved fluorescein isothiocyanate-gelatin peptides and the localization of this fluorescence indicates the sites of net gelatinolytic activity. Briefly, Human fibrosarcoma HT1080 cells (which produce MMP-2, MMP-9 and MT1-MMP) were plated on 12-mm coverslips. […] Untreated cells served as negative control for this experiment. Cells were washed with PBS and then incubated with zymography reaction buffer (0.05 M Tris-HCl, 0.15 M NaCl, 5 mM CaCl2, and 0.2 mM NaN3, pH 7.6, the high concentration of azide prevented the gelatin from being phagocytosed and thus allowing cell surface gelatinolytic activity to occur) containing 60 ug/ml DQ gelatin at 37° C. overnight. […] At the end of the incubation period, without fixation or further washes, gelatinolytic activity of the MMPs was localized and photographed by fluorescence microscopy and images were acquired by Spot digital camera.
To confirm the inhibitory activity of anti CoTCPP mAb at cellular level, the effect of the antibody was examined on gelatinolytic activity of human fibrosarcoma HT1080 cells that constitutively secrete MMP-2 and 9 by in situ zymography. To localize gelatinolytic activity of MMPs by in situ zymography, fluorescein isothiocyanate-labeled gelatin that is intramolecularly quenched (DQ-gelatin) was used as substrate. Proteolysis by gelatinases yields cleaved fluorescein isothiocyanate-gelatin peptides and the localization of this fluorescence indicates the sites of net gelatinolytic activity.

MT1-MMP = MT1-MMP (Homo sapiens, UniProt P50281); details: cited from earlier work
[3] = peptide-based hydroxamate; cited from earlier work
MMP-2 = test: kinetic assay with fluorogenic peptide substrate, MMP-2; format: biochemical, human
[4] = competitive ELISA, affinity of mAbs toward their immunizing hapten; details: concentration of soluble hapten for 50% binding
Method: Supernatants of the growing hybridomas were screened for antibodies reactive with ZnTCPP, CoTCPP or Imisdp using direct ELISA in which respective hapten-BSA (3 μg/ml in PBS) was coated to Nunc maxisorp plates. The coating was performed at 4° C. overnight and incubation with antibodies at 20° C. for 1 h. HRP-conjugated anti-mouse mAb (Sigma) was used as the secondary antibody and 2,2′-azino-bis (3-ethylbenzthiazoline-6-sulphonic acid, ABTS, Sigma) was used as substrate. PBS containing 0.005% v/v Tween 20 (PBST) was used as washing reagent. The dilution buffer was PBS. A602 was recorded by microplate reader in […]luor Plus spectrometer (Tecan, Austria). As control supernatants were incubated with BSA coated plates in the same manner Absorbance values above 0.5 millioptical density were considered as positive.
Different dilutions of hybridoma supernatant were incubated with hapten-BSA coated plates following the steps described earlier. Titration curve was plotted and the titer dilution was determined at 50% of binding. Supernatants diluted to the titer concentration were preincubated with soluble ZnTCPP, CoTCPP or Imisdp compounds for 30 minutes and then transferred to hapten-coated microtiter plates following the steps described previously. The estimated dissociation constant was the concentration of soluble hapten required to attain 50% binding.

TACE (ADAM-17) = TACE (ADAM-17) (Homo sapiens, UniProt P78536); test: kinetic assay with fluorogenic peptide QF-45, TACE; format: biochemical; details: Table 4
TACE (ADAM-17), sequence (P78536 215-824, species assumed): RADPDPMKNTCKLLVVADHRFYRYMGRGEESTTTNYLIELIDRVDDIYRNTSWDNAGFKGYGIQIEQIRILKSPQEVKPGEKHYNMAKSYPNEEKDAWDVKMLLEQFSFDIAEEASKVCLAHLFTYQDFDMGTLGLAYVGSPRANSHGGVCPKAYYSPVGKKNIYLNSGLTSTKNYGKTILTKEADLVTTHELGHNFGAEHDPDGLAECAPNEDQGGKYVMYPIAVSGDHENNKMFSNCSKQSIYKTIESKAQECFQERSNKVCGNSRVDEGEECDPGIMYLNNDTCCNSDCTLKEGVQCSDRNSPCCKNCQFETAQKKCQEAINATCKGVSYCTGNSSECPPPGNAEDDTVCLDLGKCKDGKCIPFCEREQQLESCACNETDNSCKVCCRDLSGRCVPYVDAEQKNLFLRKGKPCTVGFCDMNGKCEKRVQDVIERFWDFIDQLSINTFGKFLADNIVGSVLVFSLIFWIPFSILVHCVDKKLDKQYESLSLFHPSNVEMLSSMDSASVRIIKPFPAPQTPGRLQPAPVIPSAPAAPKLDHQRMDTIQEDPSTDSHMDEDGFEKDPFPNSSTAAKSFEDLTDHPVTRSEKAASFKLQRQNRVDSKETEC

MT1-MMP (MMP-14) = MT1-MMP (MMP-14) (Homo sapiens, UniProt P50281); test: kinetic assay with fluorogenic peptide substrate, MT1-MMP; format: biochemical; details: Table 4
MMP-9 = test: kinetic assay with fluorogenic peptide substrate, MMP-9; format: biochemical, human
MMP-9, sequence (P14780 107-444 limits assumed): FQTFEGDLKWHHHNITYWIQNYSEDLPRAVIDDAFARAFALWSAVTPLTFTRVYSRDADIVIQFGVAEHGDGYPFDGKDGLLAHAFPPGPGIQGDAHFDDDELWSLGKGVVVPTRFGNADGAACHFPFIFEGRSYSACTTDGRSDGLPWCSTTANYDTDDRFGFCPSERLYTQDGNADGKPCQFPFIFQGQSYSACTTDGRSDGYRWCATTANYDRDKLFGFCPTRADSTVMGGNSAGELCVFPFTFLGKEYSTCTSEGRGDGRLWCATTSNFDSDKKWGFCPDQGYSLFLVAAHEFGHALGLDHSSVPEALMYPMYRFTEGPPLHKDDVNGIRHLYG

Molecule: O=C(C[C@H](CSc1ccccc1)C(=O)O)c1ccc(-c2ccc(Cl)cc2)cc1 [BAY12-9566]
severe side effects [1]: liver abnormalities, anemia, shoulder and back pain, thrombocytopenia, nausea, fatigue, diarrhea and deep vein thrombosis
clinical efficacy in inhibiting metastasis (metastasis): no clinical efficacy

Molecule: COc1ccc(S(=O)(=O)N(Cc2cccnc2)[C@@H](C(=O)NO)C(C)C)cc1 [CGS27023A]
severe side effects [1]: widespread maculopapular rash

Molecule: O=S(=O)(CC1CS1)c1ccc(Oc2ccccc2)cc1 (stereo not drawn) [SB-3CT, reference compound]
cell surface gelatinolytic activity [2]: inhibition observed
Ki (MT1-MMP): 110 nM

Molecule: CNC(=O)[C@H](Cc1ccccc1)NC(=O)[C@H](CC(C)C)[C@H](CSc1cccs1)C(=O)NO [batimastat]
metabolic stability and oral bioavailability [3]: low

Molecule: CNC(=O)[C@@H](NC(=O)[C@H](CC(C)C)[C@H](O)C(=O)NO)C(C)(C)C [marimastat]
severe side effects [1]: muscoloskeletal problems
clinical efficacy in inhibiting metastasis (metastasis): no clinical efficacy

IC50 (MMP-2; Table 4): > 30 µM
Kd [4]: 10 nM
IC50 (TACE (ADAM-17)): > 30 µM
IC50 (MT1-MMP (MMP-14)): > 30 µM
IC50 (MMP-9; Table 4): > 30 µM
B1: 15E12: monoclonal antibody, IgG2a, raised against the hapten ZnTCPP (antibody)
heavy: EGPGLVAPSQSLSITCTVSGISLSSYDISWIRQPPGKGLEWLGVMETWSGGGTENYNSAFMETSRLSISKDNSKRQVFLNMETNSVQIDDTATYYCIGRLHYYGYWFLDVWDQG
light: EMETTQTPLSLPVSLGDQASISCRSSQSIVQSNGNTYLDWYLQKPGQSPKLLIYKVSNERFSGVPDRFSGSGSGTDFTLKISRVEADDLGVYYCFQGSHVPYTFGGG
modifications: 15E12 mAb heavy chain; 15E12 mAb light chain
notes: monoclonal antibody, IgG2a, raised against the hapten ZnTCPP
inhibition of proteolytic activity of MMP-2 (MMP-2; continuous fluorometric assay): did not show inhibitory effect
inhibition of proteolytic activity of MMP-9 (MMP-9; continuous fluorometric assay): did not show inhibitory effect
